Measurements published in patent publication US7135477B2, “Heterocyclic compounds which inhibit leukocyte adhesion mediated by α4 integrins” (Elan Pharmaceuticals, Inc., priority 2002, dated 2006).

Assay: Cassette dosing and serum analysis for determination of bioavailability
Format: in vivo, rat
Settings: male Sprague Dawley rats, oral cassette of 6 compounds as sodium salts, total dose 10 mg/kg, plasma at 4, 8 and 12 h, linear trapezoidal rule
Method: Cassette Dosing and Serum Analysis for Determination of Bioavailability
The cassette included 5 test articles and a standard compound, for a total dose of 10 mg/kg. Each compound/test article was converted to the sodium salt with equimolar 1 N NaOH and dissolved in water at 2 mg/mL. The cassette was prepared by mixing equal volumes of each of the six solutions. The cassette dosing solution was mixed well and then the pH was adjusted to 7.5–9. The dosing solution was prepared the day before the study and stirred overnight at room temperature.
Male Sprague Dawley (SD) rats from Charles River Laboratories, 6–8 weeks old were used in this screen. Rats were quarantined for at least one day and had continuous access to food and water. On the night before the administration of the cassette, the rats were fasted for approximately 16 h.
Four SD rats were assigned in each cassette. A single dose of the dosing solution was administered orally to each rat. The dosing volume (5 mL/kg) and time were recorded and rats were fed 2 h after dosing.
Blood samples were collected via cardiac puncture at the following time points: 4 h, 8 h and 12 h. Immediately prior to blood collection, rats were anesthetized with CO2 gas within 10–20 seconds. After the 12-h samples were collected, the rats were euthanized via CO2 asphyxiation followed by cervical dislocation.
Blood samples were kept in heparinized microtainer tubes under sub-ambient temperature (4° C.) before they were processed. Blood samples were centrifuged (10000 rpm for 5 minutes) and plasma samples were removed and stored in a −20° C. freezer until analyzed for drug levels. Drug levels in the plasma were analyzed using the following protocol for direct plasma precipitation.
The in vivo plasma samples were prepared in a 1.5 mL 96-well plate, by adding, in order, 100 μL of the test plasma, 150 μL of methanol, followed by vortexing for 10–20 seconds. 150 μL of 0.05 ng/μL of an Internal Standard in acetonitrile were added and vortexed for 30 seconds.
The standard curve samples were prepared in a 1.5 mL 96-well plate, by adding, in order, 100 μL of control mouse plasma, followed by 150 μL of methanol and vortexing for 10–20 seconds. 150 μL of 0.05 ng/μL of an Internal Standard in acetonitrile were added and vortexed for 30 seconds. The samples were spiked with 0–200 ng (10 concentrations) of the compound of interest in 50% methanol to obtain a standard curve range of 0.5 ng/mL–2,000 ng/mL. Again, the sample was vortexed for 30 seconds.
The samples were then spun for 20–30 minutes at 3000 rpm in an Eppendorf microfuge before 80–90% of supernatant was transferred into a clean 96-well plate. The organic solvent was then evaporated until the samples were dry (under N2 at 40° C./30–60 min (ZymarkTurbovap)).
The residue was then dissolved in […] mobile phase (50% CH3OH/0.1% TFA). LC/MS/MS was then run using a PE-Sciex API-3000 triple quadurpole mass spectrometer (SN0749707), Perkin-Elmer, Series200auto-sampler, and shimadzu 10A pump. Acquisition was done with PE-Sciex Analyst (v1.1) and data analysis and quantification were accomplished using PE-Sciex Analyst (v1.1). A 5–50 μL sample volume was injected onto a reverse phase ThermoHypersil DASH-18 column (Keystone 2.0×20 mm, 5 μm, PN: 8823025-701) using a mobile phase of 25% CH3OH, 0.1% TFA-100% CH3OH, 0.1% TFA. The run time was about 8 minutes at a flow rate of about 300 μL/minutes.
The Area Under the Curve (AUC) was calculated using the linear trapezoidal rule from t=0 to the last sampling time tx (see Handbook of Basic Pharmacokinetics, Wolfgang A. Ritschel and Gregory L. Kearns, 5th ed, 1999). AUC^0−tx=S((Cn+Cn+1)/2))·(tn+1−tn)[(μg/mL)h]

Compound | AUC (average AUC 0→12 h)
CCN(CC)c1ncc(N(C)S(=O)(=O)c2ccc(F)cc2)c(N[C@@H](Cc2ccc(OC(=O)N3CCCC3)cc2)C(=O)O)n1 [Example 3, N-(2-[N′,N′-diethylamino]-5-[N″-(4-fluorophenylsulfonyl)-N″-methylamino]pyrimidin-4-yl)-4′-(pyrrolidin-1-ylcarbonyloxy)-L-phenylalanine] | 22.271 (μg/mL)h
CCN(CC)c1ncc(N(C)S(=O)(=O)c2ccc(F)cc2)c(N[C@@H](Cc2ccc(OC(=O)N3CCCCC3)cc2)C(=O)O)n1 [Example 5, N-(2-[N′,N′-diethylamino]-5-[N″-(4-fluorophenylsulfonyl)-N″-methylamino]pyrimidin-4-yl)-4′-(piperidin-1-ylcarbonyloxy)-L-phenylalanine] | 2.1654 (μg/mL)h
CCN(CC)c1ncc(N(C)S(=O)(=O)c2ccc(F)cc2)c(N[C@@H](Cc2ccc(OC(=O)N3CCC3)cc2)C(=O)O)n1 [Example 8, N-(2-[N′,N′-diethylamino]-5-[N″-(4-fluorophenylsulfonyl)-N″-methylamino]pyrimidin-4-yl)-4′-(azetidin-1-ylcarbonyloxy)-L-phenylalanine] | 2.4082 (μg/mL)h
CCN(CC)c1ncc(N(C)S(=O)(=O)c2ccc(Cl)cc2)c(N[C@@H](Cc2ccc(OC(=O)N3CCC3)cc2)C(=O)O)n1 [Example 9, N-(2-[N′,N′-diethylamino]-5-[N″-(4-chlorophenylsulfonyl)-N″-methylamino]pyrimidin-4-yl)-4′-(azetidin-1-ylcarbonyloxy)-L-phenylalanine] | 2.0774 (μg/mL)h
CCN(CC)c1ncc(N(C)S(=O)(=O)c2ccc(F)cc2F)c(N[C@@H](Cc2ccc(OC(=O)N3CCCC3)cc2)C(=O)O)n1 [Example 11, N-(2-[N′,N′-diethylamino]-5-[N″-(2,4-difluorophenylsulfonyl)-N″-methylamino]pyrimidin-4-yl)-4′-(pyrrolidin-1-ylcarbonyloxy)-L-phenylalanine] | 14.818 (μg/mL)h
CCN(CC)c1ncc(N(CC)S(=O)(=O)c2ccc(F)cc2F)c(N[C@@H](Cc2ccc(OC(=O)N3CCCC3)cc2)C(=O)O)n1 [Example 12, N-(2-[N′,N′-diethylamino]-5-[N″-(2,4-difluorophenylsulfonyl)-N″-ethylamino]pyrimidin-4-yl)-4′-(pyrrolidin-1-ylcarbonyloxy)-L-phenylalanine] | 4.7816 (μg/mL)h
CCN(CC)c1ncc(N(C)S(=O)(=O)c2ccc(F)cc2F)c(N[C@@H](Cc2ccc(OC(=O)N3CCC3)cc2)C(=O)O)n1 [Example 13, N-(2-[N′,N′-diethylamino]-5-[N″-(2,4-difluorophenylsulfonyl)-N″-methylamino]pyrimidin-4-yl)-4′-(azetidin-1-ylcarbonyloxy)-L-phenylalanine] | 1.283 (μg/mL)h
CCN(CC)c1ncc(N(CC)S(=O)(=O)c2ccc(F)cc2F)c(N[C@@H](Cc2ccc(OC(=O)N3CCC3)cc2)C(=O)O)n1 [Example 14, N-(2-[N′N′-diethylamino]-5-[N″-(2,4-difluorophenylsulfonyl)-N″ethylamino]pyrimidin-4-yl)-4′-(azetidin-1-ylcarbonyloxy)-L-phenylalanine] | 0.3566 (μg/mL)h
C#CCN(c1cnc(N(CC)CC)nc1N[C@@H](Cc1ccc(OC(=O)N2CCCC2)cc1)C(=O)O)S(=O)(=O)c1ccc(F)cc1 [Example 15, N-(2-[N′,N′-diethylamino]-5-[N″-(4-fluorophenylsulfonyl)-N″-propargylamino]pyrimidin4-yl)-4′-(pyrrolidin-1-ylcarbonyloxy)-L-phenylalanine] | 90.317 (μg/mL)h
C#CCN(c1cnc(N(CC)CC)nc1N[C@@H](Cc1ccc(OC(=O)N2CCCC2)cc1)C(=O)O)S(=O)(=O)c1ccc(F)cc1F [Example 16, N-(2-[N′,N′-diethylamino]-5-[N″-(2,4-difluorophenylsulfonyl)-N″-propargylamino]pyrimidin-4-yl)-4′-(pyrrolidin-1-ylcarbonyloxy)-L-phenylalanine] | 23.808 (μg/mL)h
C#CCN(c1cnc(N(CC)CC)nc1N[C@@H](Cc1ccc(OC(=O)N2CCC2)cc1)C(=O)O)S(=O)(=O)c1ccc(F)cc1F [Example 17, N-(2-[N′,N′-diethylamino]-5-[N″-(2,4-difluorophenylsulfonyl)-N″-propargylamino]pyrimidin-4-yl)-4′-(azetidin-1-ylcarbonyloxy)-L-phenylalanine] | 0.8628 (μg/mL)h
C#CCN(c1cnc(N(CC)CC)nc1N[C@@H](Cc1ccc(OC(=O)N2CCC2)cc1)C(=O)O)S(=O)(=O)c1ccc(F)cc1 [Example 18, N-(2-[N′,N′-diethylamino]-5-[N″-(4-fluorophenylsulfonyl)-N″-propargylamino]pyrimidin-4-yl)-4′(azetidin-1-ylcarbonyloxy)-L-phenylalanine] | 4.7528 (μg/mL)h

Further lines, results first:

AUC (average AUC 0→12 h) | Compound
14.798 (μg/mL)h | CCN(CC)c1ncc(N(CC)S(=O)(=O)c2ccc(Cl)cc2)c(N[C@@H](Cc2ccc(OC(=O)N3CCCC3)cc2)C(=O)O)n1 [Example 1, N-(2-[N′,N′-diethylamino]-5-[N″-(4-chlorophenylsulfonyl)-N″-ethylamino]pyrimidin-4-yl)-4′-(pyrrolidin-1-ylcarbonyloxy)-L-phenylalanine]
15.971 (μg/mL)h | CCN(CC)c1ncc(N(CC)S(=O)(=O)c2ccc(F)cc2)c(N[C@@H](Cc2ccc(OC(=O)N3CCCC3)cc2)C(=O)O)n1 [Example 2, N-(2-[N′,N′-diethylamino]-5-[N″-(4-fluorophenylsulfonyl)-N″-ethylamino]pyrimidin-4-yl)-4′-(pyrrolidin 1-ylcarbonyloxy)-L-phenylalanine]
13.829 (μg/mL)h | CCN(CC)c1ncc(N(C)S(=O)(=O)c2ccc(Cl)cc2)c(N[C@@H](Cc2ccc(OC(=O)N3CCCC3)cc2)C(=O)O)n1 [Example 4]
0.5125 (μg/mL)h | CCN(CC)c1ncc(N(CC)S(=O)(=O)c2ccc(F)cc2)c(N[C@@H](Cc2ccc(OC(=O)N3CCCCC3)cc2)C(=O)O)n1 [Example 6, N-(2-[N′,N′-diethylamino]-5-[N″-(4-fluorophenylsulfonyl)-N″-ethylamino]pyrimidin-4-yl)-4′-(piperidin-1-ylcarbonyloxy)-L-phenylalanine]
0.8979 (μg/mL)h | CCN(CC)c1ncc(N(CC)S(=O)(=O)c2ccc(F)cc2)c(N[C@@H](Cc2ccc(OC(=O)N3CCC3)cc2)C(=O)O)n1 [Example 7, N-(2-[N′,N′-diethylamino]-5-[N″-(4-fluorophenylsulfonyl)-N″-ethylamino]pyrimidin-4-yl)-4-(azetidin-1-ylcarbonyloxy)-L-phenylalanine]
2.1113 (μg/mL)h | CCN(CC)c1ncc(N(CC)S(=O)(=O)c2ccc(Cl)cc2)c(N[C@@H](Cc2ccc(OC(=O)N3CCC3)cc2)C(=O)O)n1 [Example 10, N-(2-[N′,N′-diethylamino]-5-[N″-(4-chlorophenylsulfonyl)-N″-ethylamino]pyrimidin-4-yl)-4′-(azetidin-1-ylcarbonyloxy)-L-phenylalanine]
